# Source: patent publication US4588750A, “Therapeutic compositions for reducing sebum secretion” (Hoffmann-La Roche Inc., priority 1983, dated 1986)
# Tests used:
# Hypervitaminosis A test = experiment: Hypervitaminosis A test; set-up: species or system mice; details: mouse, in vivo
# Protocol: A hypervitaminosis A test was carried out on mice weighing 25-27 g. which received i.p. injections of 1,2,3,4-tetrahydro-1,1,4,4-tetramethyl-6-[(E)-α-methylstyryl]naphthalene in arachis oil over a 14 day period. Hypervitaminosis A is defined as being that condition of the animals where the symptoms (weight loss, skin desquamtion, loss of hair, bone fractures of extremities) added up to at least 3, c.f. W. Bollag, Cancer, 1974, 10, 731.
# papilloma = details: cited from earlier work
# [1] = test system: sebaceous glands (flank organs); experiment: Inhibition of testosterone propionate-stimulated flank organ weight increase in castrated male hamsters (Table II); type: in vivo
# Protocol: The effect of the (E) form of the compound of formula I on sebaceous glands in mammals was further determined using hamsters, according to the following procedure. […] Animals were treated for 14 days and the response was measured by weight changes in flank organs removed at autopsy. Separate groups of hamsters served as vehicle controls and testosterone alone groups. Activity was measured by inhibition of the increase in weight which occurs in response to stimulation with testosterone propionate.
# [2] = Skin irritation, topical application to the ears; type: in vivo, Charles River CD-1 mice; details: topically in 25 μl/day acetone, doses up to 100 μg/day, 7 consecutive days
# Protocol: 1,2,3,4-tetrahydro-1,1,4,4-tetramethyl-6-[(E)-α-methylstyryl]naphthalene was applied topically to the ears of 21-day-old male Charles River CD-1 mice for 7 consecutive days in 25 μl/day acetone. During treatment mice are observed for development of erythema on the ears, and uniform skin punches are taken at autopsy on day 8. Wet and dry weights of the skin samples were determined and compared to weights from vehicle-treated control animals. Increases in fluid content of the skin punches served as a measure of edema when irritation and inflammation had occurred.
# sebum secretion = experiment: Inhibition of testosterone propionate-stimulated sebum secretion in castrated male rats (Table I); type: in vivo; details: for Mean ± S.E. "Sebum" / % Inhibition of testosterone-stimulated increase in "sebum": 14 days
# Protocol: The effect of the (E) form of the compound of formula I on sebum secretion in mammals, such as rats, was determined according to the following procedure. Male rats weighing about 50-60 g. were castrated at the age of 21-22 days. One week after surgery, the rats were washed in a detergent solution to remove "sebum" which was secreted prior to the test period. One group of rats were treated only with the carrier vehicles employed. Another group of rats received only testosterone propionate in sesame oil, 100 ug/0.2 ml/rat/day […]. Other groups of rats were given testosterone propionate in sesame oil (100 ug/0.2 ml/rat/day subcutaneously) and 1,2,3,4-tetrahydro-1,1,4,4-tetramethyl-6-[(E)-α-methylstyryl]naphthalene, with different amounts of 1,2,3,4-tetrahydro-1,1,4,4-tetramethyl-6[(E)-α-methylstyryl]naphthalene being administered to each of the other groups orally in 0.2 ml/rat/day propylene glycol. The rats were treated with the compounds for 14 days. On the 15th day total body immersion in a fixed volume of acetone with mixing for two minutes removed surface "sebum" from skin and fur. An aliquot of the solvent bath was dried and the solid residue was measured gravimetrically. Inhibition of the testosterone-stimulated increase in "sebum" over solely testosterone propionate stimulated rats was used as the parameter of response.
# [3] = Teratogenicity tests, for fetal abnormalities; type: in vivo, Charles River CD rats; details: 10, 50 or 150 mg/kg daily orally, gestation days 8 and 9
# Protocol: In order to further determine the safety of the (E) form of the compound of formula I teratogenicity tests, for fetal abnormalities, were carried out in rats according to the following procedure. 1,2,3,4-tetrahydro-1,1,4,4-tetramethyl-6-[(E)-α-methylstyryl]naphthalene was provided to Charles River CD rats on gestation days 8 and 9 using a daily dose of 10 , 50 or 150 mg/kg of this substance dissolved or suspended in a polyethelene glycol formulation containing traces of antioxidants (ascorbyl palmitate and butylated hydroxyanisole). The compound was administered orally at a constant volume of 5 ml/kg. The rats were then sacrificed on gestation day 20 and examined.
# [4] = General tolerability statement; type: in vivo; details: pharmacologically suitable dosages
# [5] = test system: abdominal sebaceous gland pad organs; experiment: Inhibition of testosterone-stimulated abdominal sebaceous gland pad weight increase in castrated male gerbils (Table III); type: in vivo
# Protocol: The effect of the (E) form of the compound of formula I on sebaceous glands in mammals was further determined using gerbils, according to the following procedure. Male gerbils were castrated at 8 weeks of age and one week after surgery were treated with 5 ug free testosterone and 1,2,3,4-tetrahydro-1,1,4,4-tetramethyl-6-[(E)-α-methylstyryl]naphthalene topically in acetone on the abdominal sebaceous gland pad organs. Animals were treated for 14 days and the response was measured by weight changes in these organs removed at autopsy. Separate groups of gerbils served as vehicle controls and testosterone alone groups. Activity was measured by inhibition of the increase in weight which occurs in response to stimulation with testosterone.
smiles,measurement,setting,value
"C/C(=C\c1ccccc1)c1ccc2c(c1)C(C)(C)CCC2(C)C [1,2,3,4-tetrahydro-1,1,4,4-tetramethyl-6-[(E)-α-methylstyryl]naphthalene]",undesired side effects such as hypervitaminosis,Hypervitaminosis A test,no undesired side effects such as hypervitaminosis
same,NOAEL at 336 h,"Hypervitaminosis A test; ip, i.p. in arachis oil, 14 day period, hypervitaminosis A = symptoms adding up to at least 3, read-out: dosage not resulting in hypervitaminosis A (tested up to)",> 400 mg/kg
same,effect on papilloma growth,"papilloma; Loeliger et al., Eur. J. Med. Chem., 15, 9 (1980)",no effect on papilloma growth
same,papilloma size,"papilloma; after intraperitoneal administration, Loeliger et al. (1980)",increase in papilloma size
same,% Inhibition of testosterone-stimulated increase in flank organ weight,"[1]; 0.5 μg topically + T.P. 5 ug, 14 days, 9 hamsters",38%
same,Mean ± S.E. Flank Organ,"[1]; 0.5 μg topically + T.P. 5 ug, 14 days, 9 hamsters, p<.001 vs T.P. alone",26.0 ± 1.6 mg
same,inhibition of flank organ weight increase,"[1]; 0.5 ug/animal/day topically with 5 μg T.P., vs testosterone alone",~38%
same,"adverse effects (skin irritation: erythema, edema of ear skin punches)",[2],not to have adverse effects
same,"Mean ± S.E. ""Sebum""","sebum secretion; 0.5 ug/rat/day p.o. + T.P. 100 ug/rat/day s.c., 8 rats, NS vs T.P. alone",25.1 ± 1.9 ug/100 ul
same,"Mean ± S.E. ""Sebum""","sebum secretion; 1 ug/rat/day p.o. + T.P. 100 ug/rat/day s.c., 8 rats, NS vs T.P. alone",26.8 ± 1.6 ug/100 ul
same,"Mean ± S.E. ""Sebum""","sebum secretion; 2 ug/rat/day p.o. + T.P. 100 ug/rat/day s.c., 8 rats, NS vs T.P. alone",22.1 ± 1.2 ug/100 ul
same,"Mean ± S.E. ""Sebum""","sebum secretion; 4 ug/rat/day p.o. + T.P. 100 ug/rat/day s.c., 8 rats, NS vs T.P. alone",21.6 ± 1.6 ug/100 ul
same,"% Inhibition of testosterone-stimulated increase in ""sebum""",sebum secretion; 10 ug/rat/day p.o. + T.P. 100 ug/rat/day s.c.,61%
same,"Mean ± S.E. ""Sebum""","sebum secretion; 10 ug/rat/day p.o. + T.P. 100 ug/rat/day s.c., 9 rats, p<.01 vs T.P. alone",23.4 ± 1.6 ug/100 ul
same,"% Inhibition of testosterone-stimulated increase in ""sebum""",sebum secretion; 20 ug/rat/day p.o. + T.P. 100 ug/rat/day s.c.,70%
same,"Mean ± S.E. ""Sebum""","sebum secretion; 20 ug/rat/day p.o. + T.P. 100 ug/rat/day s.c., 9 rats, p<.01 vs T.P. alone",22.4 ± 1.6 ug/100 ul
same,"% Inhibition of testosterone-stimulated increase in ""sebum""",sebum secretion; 40 ug/rat/day p.o. + T.P. 100 ug/rat/day s.c.,73%
same,"Mean ± S.E. ""Sebum""","sebum secretion; 40 ug/rat/day p.o. + T.P. 100 ug/rat/day s.c., 9 rats, p<.001 vs T.P. alone",22.1 ± 0.9 ug/100 ul
same,"% Inhibition of testosterone-stimulated increase in ""sebum""",sebum secretion; 100 ug/rat/day p.o. + T.P. 100 ug/rat/day s.c.,93%
same,"Mean ± S.E. ""Sebum""","sebum secretion; 100 ug/rat/day p.o. + T.P. 100 ug/rat/day s.c., 9 rats, p<.001 vs T.P. alone",19.9 ± 1.2 ug/100 ul
same,sebum secretion (in words),"sebum secretion; 100 ug/rat/day p.o. + T.P. 100 ug/rat/day s.c., compared to T.P. alone",decreased to virtually normal level
same,external malformations,[3]; 187 fetuses,no external malformations were recorded in any of the 187 fetuses
same,absorption rate,[3]; examined day 20,no adverse effects
same,fetal weight,[3]; examined day 20,no adverse effects
same,maternal body weights,[3]; examined day 20,no adverse effects
same,tolerability,[4],well tolerated without toxic symptoms
same,% Inhibition of testosterone-stimulated increase in sebaceous gland pad weight,"[5]; 1 ug topically + testosterone 5 ug, 14 days, 10 gerbils",54%
same,Mean ± S.E. Sebaceous Gland Pad,"[5]; 1 ug topically + testosterone 5 ug, 14 days, 10 gerbils, p<.01 vs testosterone alone",45.6 ± 6.9 mg
same,inhibition of sebaceous gland pad weight,"[5]; 1.0 ug/animal/day p.o. (so in the source) with 5 ug testosterone topically, vs testosterone alone",~54%
"CCC(=O)O[C@H]1CC[C@H]2[C@@H]3CCC4=CC(=O)CC[C@]4(C)[C@H]3CC[C@]12C [T.P., testosterone propionate, reference compound]",Mean ± S.E. Flank Organ,"[1]; T.P. alone, 5 ug, 14 days, 8 hamsters",33.8 ± 2.0 mg
same,"Mean ± S.E. ""Sebum""","sebum secretion; 100 ug/rat/day s.c. T.P. alone (0 ug compound), 8 rats, first experiment",25.1 ± 1.4 ug/100 ul
same,"Mean ± S.E. ""Sebum""","sebum secretion; 100 ug/rat/day s.c. T.P. alone (0 ug compound), 9 rats, second experiment",30.1 ± 1.0 ug/100 ul
"C[C@]12CC[C@H]3[C@@H](CCC4=CC(=O)CC[C@@]43C)[C@@H]1CC[C@@H]2O [Testosterone, testosterone, reference compound]",Mean ± S.E. Sebaceous Gland Pad,"[5]; Testosterone alone, 5 ug, 14 days, 10 gerbils",72.5 ± 5.8 mg
